Molecular target: Potassium voltage-gated channel subfamily KQT member 2 (Rattus norvegicus, UniProt O88943)
Test: KCNQ2 channel potentiators, dose response, mechanism study for KCNQ2 potentiator project, cell-based, automated electrophysiology (AID 2603)

Potassium voltage-gated channel subfamily KQT member 2, sequence (O88943 whole entry): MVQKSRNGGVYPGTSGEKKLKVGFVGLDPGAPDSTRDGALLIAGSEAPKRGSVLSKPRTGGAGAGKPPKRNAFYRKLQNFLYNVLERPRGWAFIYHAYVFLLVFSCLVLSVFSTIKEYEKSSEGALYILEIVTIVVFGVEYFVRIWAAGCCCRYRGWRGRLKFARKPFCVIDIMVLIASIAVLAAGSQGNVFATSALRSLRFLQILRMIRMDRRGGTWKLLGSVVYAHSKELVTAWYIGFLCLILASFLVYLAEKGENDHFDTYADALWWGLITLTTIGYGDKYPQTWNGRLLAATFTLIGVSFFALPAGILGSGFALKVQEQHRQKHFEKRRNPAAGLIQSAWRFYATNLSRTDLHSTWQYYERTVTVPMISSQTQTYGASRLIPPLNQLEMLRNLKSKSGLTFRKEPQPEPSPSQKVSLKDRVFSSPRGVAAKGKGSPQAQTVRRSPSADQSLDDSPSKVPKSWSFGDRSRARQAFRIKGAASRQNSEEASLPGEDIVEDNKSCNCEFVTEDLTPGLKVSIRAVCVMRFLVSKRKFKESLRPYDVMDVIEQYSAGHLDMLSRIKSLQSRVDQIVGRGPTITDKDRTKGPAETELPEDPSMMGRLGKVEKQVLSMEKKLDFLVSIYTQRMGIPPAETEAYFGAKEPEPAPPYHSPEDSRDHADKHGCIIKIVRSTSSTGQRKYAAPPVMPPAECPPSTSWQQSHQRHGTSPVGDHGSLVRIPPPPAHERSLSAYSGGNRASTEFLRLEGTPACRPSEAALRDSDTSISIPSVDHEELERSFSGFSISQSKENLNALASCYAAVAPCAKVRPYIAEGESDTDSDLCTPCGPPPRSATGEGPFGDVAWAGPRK

CC1=NC(=O)NC(c2cccc(O)c2)C1C(=O)OC1CCCCCCC1 (configuration not stated) [SMR000111748]
EC50: 537 µM

CC(C)N1C(=O)C(=NNc2ccc(Cl)c(C(=O)O)c2)c2ccccc21 [MLS000773916]
EC50: 3.7 µM

Reference: BindingDB's records for doi:10.7270/Q20000JS (Johns Hopkins Ion Channel Center, 2010)
